Laboratory results taken from US4863916A, “Substituted 6-hydroxymethyl-carbapenem antibiotics” (Bayer Aktiengesellschaft, priority 1986, dated 1989).

Experiments:
Assay in all cases: Antibacterial action, minimum inhibitory concentration (MIC), agar method on Iso-sensitest agar
Format in all cases: cell-based
Staph. 133 = tested on: Staph. 133
Excerpt: (§1) The agar solution method was used for determining the antibacterial action, an Iso-sensitest agar being used and the minimum inhibitory concentration (MIC) of the sample being expressed in μg/ml of the nutrient medium (Table).

Staph. 24455 = tested on: Staph. 24455
Excerpt: as §1

Staph. E 25185 = tested on: Staph. E 25185
Excerpt: as §1

MIC (Staph. 133): 0.5 µg/mL | MIC (Staph. 24455): 0.5 µg/mL | MIC (Staph. E 25185): 1 µg/mL
Compound: COC(=O)[C@@H](O)[C@H]1C(=O)N2C(C(=O)O)=C(Sc3ccncc3)C[C@H]12 [Example 14, Sodium (5R,6S)-6-[(1S)-1-hydroxy-1-methoxycarbonyl]methyl-7-oxo-3-(4-pyridinylthio)-1-azabicyclo[3.2.0]hept-2encarboxylate]
